In PMC8258697 (The Journal of Biological Chemistry, 2021):
Positions count from the first letter of the chain named. Where “and” joins values, the source holds several entries; their conditions need not be identical. Identical values can stand only once.

Assays:
[1] = target: T1, PPARγ:RXRα heterodimer (Homo sapiens, UniProt P19793+P37231); test: PPARγ:RXRα heterodimer formation HTRF assay, sGFP-RXRα LBD titrated against biotinylated PPARγ LBD coupled to Tb-SA; assay type: binding
T1 construct: His10-tag with TEV site (N, cleaved yes); made in house; host or cells: E. coli T7 express (co-expressed with GroEL/ES)
T1 sequence (P37231 234-505): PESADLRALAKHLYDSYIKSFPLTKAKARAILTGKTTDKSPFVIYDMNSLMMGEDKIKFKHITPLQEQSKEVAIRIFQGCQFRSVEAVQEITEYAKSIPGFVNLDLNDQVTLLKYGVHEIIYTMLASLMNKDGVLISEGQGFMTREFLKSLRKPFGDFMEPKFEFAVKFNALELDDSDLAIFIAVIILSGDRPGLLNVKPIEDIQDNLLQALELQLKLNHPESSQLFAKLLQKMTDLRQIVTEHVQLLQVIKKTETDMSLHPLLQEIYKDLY
T1 sequence (P19793 226-462): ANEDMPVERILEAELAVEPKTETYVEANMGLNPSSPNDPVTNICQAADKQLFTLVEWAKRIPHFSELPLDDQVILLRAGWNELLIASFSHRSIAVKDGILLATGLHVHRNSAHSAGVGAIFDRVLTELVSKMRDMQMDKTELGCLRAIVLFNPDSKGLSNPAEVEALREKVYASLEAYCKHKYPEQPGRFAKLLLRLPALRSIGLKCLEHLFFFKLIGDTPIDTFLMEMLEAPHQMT

[2] = target: T2, PPARγ LBD in complex with RXRα LBD (Homo sapiens, UniProt P37231); test: Heterodimer coactivator recruitment HTRF assay: CBP-1 recruitment by PPARγ LBD in complex with sGFP-RXRα LBD total mutant; assay type: biochemical
T2 construct: His10-tag with TEV site (N, cleaved yes); made in house; host or cells: E. coli T7 express (co-expressed with GroEL/ES)
T2 sequence (P37231 234-505): T1 sequence (P37231 234-505)
T2 sequence (P19793 226-462 V280T/K284E/V298T/F450Y/E453R partner limits assumed): T1 sequence (P19793 226-462) with V55T, K59E, V73T, F225Y, E228R

[3] = target: T3, PPARγ LBD (Homo sapiens, UniProt P37231); test: Monomer cofactor recruitment HTRF assay: CBP-1 recruitment by isolated sGFP-PPARγ LBD; assay type: biochemical; conditions: versus 1 μM Rosi
T3 construct: His10-tag with TEV site (N, cleaved yes); made in house; host or cells: E. coli T7 express (co-expressed with GroEL/ES)
T3 sequence (P37231 234-505): T1 sequence (P37231 234-505)

[4] = tested on: PPARγ; conditions: cited from earlier work
[5] = target: T2, PPARγ LBD in complex with RXRα LBD; conditions: cited from earlier work
[6] = tested on: RXRα LBD wildtype; conditions: cited from earlier work
[7] = target: T4, RXRα homodimer (Homo sapiens, UniProt P19793); test: RXRα homodimer formation HTRF assay, sGFP-RXRα LBD titrated against biotinylated RXRα LBD (wildtype); assay type: binding; conditions: 10 μM ligand compared with no ligand
T4 construct: His10-tag with TEV site (N, cleaved yes); made in house; host or cells: E. coli T7 express (co-expressed with GroEL/ES)
T4 sequence (P19793 226-462) 1: T1 sequence (P19793 226-462)
T4 sequence (P19793 226-462) 2: T1 sequence (P19793 226-462)

[8] = target: the molecule itself; test: SEC; size exclusion chromatography during purification; 16/600 Superdex75 (and 16/600 Superdex200 for sGFP-RXRα) in 25 mM Hepes pH 7.5, 150 mM KF, 10% glycerol, 5 mM DTT
[9] = target: T5, biotinylated RXRα LBD (N-terminal Avi-tag) (human, UniProt P19793-1 226-462, biotin on the Lys residue in the Avi-tag); test: FRET
T5 chain: T1 sequence (P19793 226-462)

[10] = target: T6, sGFP-PPARβ/δ LBD (human, UniProt Q03181-1 170-441); test: AlphaScreen or HTRF; LBD:LBD dimer formation; biotinylated RXRα LBD (0.375 nM) coupled to Tb-SA (0.75 nM) as FRET donor; sGFP-PPAR LBD titrated up to 4.8 μM, total sGFP kept constant with free sGFP; no ligand; HTRF assay buffer with 0.1% CHAPS and 1% DMSO; 1 h at RT; apparent Kd from the inflection point; conditions: both partners purified
T6 construct: PPARβ/δ LBD, human, UniProt Q03181-1, residues 170-441; also called PPARδ; source: E. coli T7 express, coexpressed with GroEL/ES, purified (Ni IMAC, TEV, reverse IMAC, SEC); not shown: His10, N-terminal, cleaved; sGFP, N-terminal, kept
T6 sequence (looked up): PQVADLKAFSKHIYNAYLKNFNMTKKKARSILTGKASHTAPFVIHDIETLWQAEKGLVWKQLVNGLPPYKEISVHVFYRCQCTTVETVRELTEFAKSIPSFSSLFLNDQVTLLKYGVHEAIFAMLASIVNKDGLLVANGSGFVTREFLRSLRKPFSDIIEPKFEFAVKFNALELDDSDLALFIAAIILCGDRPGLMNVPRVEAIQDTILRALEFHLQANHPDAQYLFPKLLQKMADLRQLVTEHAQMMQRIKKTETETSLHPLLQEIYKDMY

[11] = target: T7, sGFP-PPARα LBD (human, UniProt Q07869-1 198-468); test: as above; conditions: both partners purified
T7 construct: PPARα LBD, human, UniProt Q07869-1, residues 198-468; source: E. coli T7 express, coexpressed with GroEL/ES, purified (Ni IMAC, TEV, reverse IMAC, SEC); not shown: His10, N-terminal, cleaved; sGFP, N-terminal, kept
T7 sequence (looked up): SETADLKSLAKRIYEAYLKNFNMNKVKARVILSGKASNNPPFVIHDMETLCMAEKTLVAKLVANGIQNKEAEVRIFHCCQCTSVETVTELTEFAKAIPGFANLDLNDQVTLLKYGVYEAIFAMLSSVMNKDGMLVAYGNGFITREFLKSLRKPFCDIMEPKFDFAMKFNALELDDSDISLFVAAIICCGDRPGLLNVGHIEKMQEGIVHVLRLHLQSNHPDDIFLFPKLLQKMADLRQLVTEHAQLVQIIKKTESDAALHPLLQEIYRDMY

[12] = target: T8, biotinylated CBP-1 cofactor peptide (CREB-binding protein coactivator motif 1) (N-terminal biotin); test: AlphaScreen or HTRF; as a27, with SR11237 (up to 100 μM) titrated together with unlabeled RXRα total mutant LBD (up to 8 μM); referenced to isolated sGFP-PPARγ LBD activated by rosiglitazone; conditions: both partners purified
T8 construct: coupled to Tb-streptavidin in the assay; also called CBP-1 peptide; CBP-derived peptide; source: bought: Eurogentec GmbH
T8 peptide: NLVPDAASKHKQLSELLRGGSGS

[13] = target: T9, RXRα LBD (Homo sapiens, UniProt P19793); test: LBD:LBD heterodimer formation HTRF assay, sGFP-PPAR LBD titrated against biotinylated RXRα LBD coupled to Tb-SA; assay type: binding; conditions: sGFP-PPAR LBD titrated up to […]; 0.375 nM RXRα; no ligand; read-out: apparent Kd of heterodimer formation with RXRα LBD
T9 construct: His10-tag with TEV site (N, cleaved yes); made in house; host or cells: E. coli T7 express (co-expressed with GroEL/ES)
T9 sequence (P19793 226-462): T1 sequence (P19793 226-462)

For `O=C(Nc1ccccc1)c1cc([N+](=O)[O-])ccc1Cl` [GW9662], the “effect on PPARγ:RXRα heterodimer formation” value ([1]; 1 μM ligand compared with apo) was “did not affect heterodimer formation”, the “Dimer recruitment, antagonist mode, Max inhibition (%)” value ([2]; versus 1 μM Rosi) was 52% and the “Monomer recruitment, antagonist mode, Max inhibition (%)” value [3] was 62%. The IC50 ([3]; read-out: Monomer recruitment, antagonist mode, Potency (IC50)) was 1200 ± 70 nM.

In the case of `O=S(=O)(Nc1cc(Cl)c(Oc2cnc3ccccc3c2)c(Cl)c1)c1ccc(Cl)cc1Cl` [INT131], the “degree of activation of PPARγ compared with rosiglitazone” value [4] is given as 30%.

In the case of `O=C(O)c1c(Sc2ccccc2)c2cc(Cl)ccc2n1Cc1ccccc1` [SR145], the “degree of activation of PPARγ compared with rosiglitazone” value [4] is listed as ~ 35%.

For `O=C(O)Cc1cc(I)c(Oc2cc(I)c(O)c(I)c2)c(I)c1` [TETRAC, 3,3',5,5'-tetraiodothyroacetic acid], the “enhancement of CBP-1 recruitment in comparison with 1 μM rosiglitazone” value [5] is given as “approximately 50%”, the “effect on PPARγ:RXRα heterodimer formation” value ([1]; 10 μM ligand compared with no ligand) is given as “strongly reduced the apparent Kd” and the “reduction in the apparent Kd of dimer formation” value ([1]; 10 μM ligand in comparison with dimethyl sulfoxide control) is given as 4 fold. The “activation of RXRα in comparison with 1 μM SR11237” value [6] was “below 10%”, the EC50 ([6]; read-out: EC50 of activation of RXRα) was ~10000 nM and the “effect on RXRα homodimer formation” value [7] was “slightly but significantly weakened”.

In the case of GW1929, the “reduction of the apparent Kd of heterodimer formation” value ([1]; 1 μM ligand compared with apo) is reported as 3 fold, the “change of EC50 in the heterodimer setting in comparison with monomeric PPARγ LBD” value [2] is reported as “about 2 fold” and the “Dimer recruitment, agonist mode, Efficacy (%)” value ([2]; normalized to rosiglitazone in the heterodimer) is reported as 118%.

B1: sGFP-RXRα LBD wildtype (domain or fragment, human, UniProt P19793-1 226-462, looked up)
chain: T1 sequence (P19793 226-462)
notes: retinoid X receptor alpha (RXRα) LBD, human, UniProt P19793-1, residues 226-462; only the fractions eluting as monomer in the second SEC were used; also called RXRα as a fusion protein with sGFP; RXRα wt; source: E. coli T7 express, coexpressed with GroEL/ES, purified (Ni IMAC, TEV, two SEC steps); not shown: His10, N-terminal, cleaved; sGFP, N-terminal, kept
For B1, the “stoichiometry N” value [8] was 2 and the Kd [9] was 50 nM and 28 nM.

B2: biotinylated RXRα LBD (N-terminal Avi-tag) (domain or fragment, human, UniProt P19793-1 226-462, looked up)
chain: T1 sequence (P19793 226-462)
modifications: biotin on the Lys residue in the Avi-tag
notes: retinoid X receptor alpha (RXRα) LBD, human, UniProt P19793-1, residues 226-462; coupled to Tb-streptavidin in the assay; also called biotin-labeled RXRα LBD; source: E. coli T7 express, coexpressed with GroEL/ES, purified (Ni IMAC, TEV and BirA, monomeric avidin, SEC); not shown: His10, N-terminal, cleaved; Avi-tag, N-terminal, kept
With B2 the Kd [10] was 363 nM and the Kd [11] was 72 nM.

B3: sGFP-PPARγ LBD:RXRα total mutant LBD (unlabeled) heterodimer (complex, human)
chain 1: T1 sequence (P37231 234-505)
chain 2: TSSANEDMPVERILEAELAVEPKTETYVEANMGLNPSSPNDPVTNICQAADKQLFTLTEWAERIPHFSELPLDDQTILLRAGWNELLIASFSHRSIAVKDGILLATGLHVHRNSAHSAGVGAIFDRVLTELVSKMRDMQMDKTELGCLRAIVLFNPDSKGLSNPAEVEALREKVYASLEAYCKHKYPEQPGRFAKLLLRLPALRSIGLKCLEHLFFFKLIGDTPIDTYLMRMLEAPHQMT
notes: PPARγ isoform 2 LBD, human, UniProt P37231-1, residues 234-505; RXRα LBD, human, residues 223-462, five AF-2 mutations; also called LBD:LBD heterodimer with RXRα; source: mixed from the purified E. coli proteins (100 nM sGFP-PPARγ LBD, RXRα total mutant LBD titrated); not shown: His10, N-terminal, cleaved; sGFP, N-terminal, kept; MBP, N-terminal, cleaved; His8, N-terminal, cleaved
In the case of B3, the “CBP-1 recruitment relative to full activation of monomeric PPARγ with rosiglitazone (%)” value [12] is reported as 26%.

B4: PPARδ: PPARδ LBD as fusion protein with N-terminal sGFP (protein)
chain: T6 sequence (looked up)
modifications: left off: His10, N-terminal, cleaved | sGFP, N-terminal, kept
With B4 the Kd [13] was 363 nM.

B5: PPARα: PPARα LBD as fusion protein with N-terminal sGFP (protein)
chain: T7 sequence (looked up)
modifications: left off: His10, N-terminal, cleaved | sGFP, N-terminal, kept
With B5 the Kd [13] was 72 nM.
